Data published in PubChem BioAssay AID330 (DTP/NCI, 2004).
Inconclusive results and toxic doses are left out. How the source made its calls: active means survival T/C of 150% or more; inactive means T/C below 125% in these data.

System: P388 leukemia ip, CD2F1 mice, survival T/C
Assay: NCI In Vivo Anticancer Drug Screen. Data for tumor model P388 Leukemia (intraperitoneal) in CD2F1 (CDF1) mice
Conditions: endpoint: median survival time, higher = longer survival
In short: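 Mice carrying the transplanted tumor received test compound or vehicle. Survival was recorded in each group, and the value is the treated-group measurement divided by that of the vehicle-treated control group.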

[1] = dose: 12.5 mg/kg/injection, schedule: Q01DX009 (ip), vehicle: saline
[2] = dose: 25.0 mg/kg/injection, schedule: Q01DX009 (ip), vehicle: saline
[3] = dose: 50.0 mg/kg/injection, schedule: Q01DX009 (ip), vehicle: saline with Tween-80
[4] = dose: 50.0 mg/kg/injection, schedule: Q01DX009 (ip), vehicle: saline
[5] = dose: 100.0 mg/kg/injection, schedule: Q01DX009 (ip), vehicle: saline with Tween-80
[6] = dose: 100.0 mg/kg/injection, schedule: Q01DX001 (ip), vehicle: Klucel (hydroxypropylcellulose) (HPC)
[7] = dose: 200.0 mg/kg/injection, schedule: Q01DX001 (ip), vehicle: Klucel (hydroxypropylcellulose) (HPC)
[8] = dose: 400.0 mg/kg/injection, schedule: Q01DX001 (ip), vehicle: Klucel (hydroxypropylcellulose) (HPC)
[9] = dose: 100.0 mg/kg/injection, schedule: Q04DX003 (ip), vehicle: Klucel (hydroxypropylcellulose) (HPC)
[10] = dose: 50.0 mg/kg/injection, schedule: Q01DX005 (ip), vehicle: saline with Tween-80
[11] = dose: 100.0 mg/kg/injection, schedule: Q01DX005 (ip), vehicle: saline with Tween-80
[12] = dose: 200.0 mg/kg/injection, schedule: Q01DX005 (ip), vehicle: saline with Tween-80
[13] = dose: 50.0 mg/kg/injection, schedule: Q01DX009 (ip), vehicle: Klucel (hydroxypropylcellulose) (HPC)
[14] = dose: 100.0 mg/kg/injection, schedule: Q01DX009 (ip), vehicle: Klucel (hydroxypropylcellulose) (HPC)
[15] = dose: 200.0 mg/kg/injection, schedule: Q01DX009 (ip), vehicle: Klucel (hydroxypropylcellulose) (HPC)

Measured: T/C

COc1ccc2nc3ccccc3c(NCCNCCO)c2c1
inactive: dose: 1.25 mg/kg/injection, schedule: Q01DX009 (ip), vehicle: saline 105 % of control | dose: 2.5 mg/kg/injection, schedule: Q01DX009 (ip), vehicle: saline 105 % of control | dose: 5.0 mg/kg/injection, schedule: Q01DX009 (ip), vehicle: saline 120 % of control

O=C1CSC(=O)N1c1ccc(Cl)c(Cl)c1
inactive: [1] 94 % of control | [2] 89 % of control | [3] 95 % of control | [4] 88 % of control | [5] 87 % of control

CC1(C)C2=CCC[C@H]2[C@H]2[C@@H](OC(=O)/C=C/c3ccccc3)CC[C@H]21
inactive: [6] 100 % of control | [7] 103 % of control | [8] 103 % of control

Cc1nc2c(cc1[N+](=O)[O-])C(=O)NCCN2
inactive: dose: 25.0 mg/kg/injection, schedule: Q04DX003 (ip), vehicle: Klucel (hydroxypropylcellulose) (HPC) 91 % of control | dose: 50.0 mg/kg/injection, schedule: Q04DX003 (ip), vehicle: Klucel (hydroxypropylcellulose) (HPC) 100 % of control | [9] 96 % of control

O=S1(=O)OCCCO1
inactive: dose: 12.5 mg/kg/injection, schedule: Q01DX005 (ip), vehicle: saline 109 % of control | dose: 25.0 mg/kg/injection, schedule: Q01DX005 (ip), vehicle: saline 98 % of control | dose: 50.0 mg/kg/injection, schedule: Q01DX005 (ip), vehicle: saline 124 % of control

O=C1C=CC(=Nc2cccc3c(N=C4C=CC(=O)O4)cccc23)O1
inactive: dose: 25.0 mg/kg/injection, schedule: Q01DX005 (ip), vehicle: Klucel (hydroxypropylcellulose) (HPC) 107 % of control | dose: 50.0 mg/kg/injection, schedule: Q01DX005 (ip), vehicle: Klucel (hydroxypropylcellulose) (HPC) 111 % of control | dose: 100.0 mg/kg/injection, schedule: Q01DX005 (ip), vehicle: Klucel (hydroxypropylcellulose) (HPC) 115 % of control

CC1=CCC(C(C)(O)C2CCC3(C)C4=C(C=C5C=CC(=O)OC(C)(C)C5CC4)CCC23C)OC1=O (centres undefined)
inactive: dose: 12.5 mg/kg/injection, schedule: Q01DX005 (ip), vehicle: other 94 % of control | dose: 25.0 mg/kg/injection, schedule: Q01DX005 (ip), vehicle: other 92 % of control

CC(=O)Oc1c2ccccc2cc2ccccc12
inactive: [10] 112 % of control | [11] 96 % of control | [12] 89 % of control

CSc1nc(N)c(C(=O)Nc2ccc([N+](=O)[O-])cc2)s1
inactive: [13] 99 % of control | [14] 99 % of control | [15] 100 % of control

Nc1nnc2cc(F)ccc2n1
inactive: [13] 104 % of control | [4] 123 % of control | [14] 108 % of control | dose: 100.0 mg/kg/injection, schedule: Q01DX009 (ip), vehicle: saline 108 % of control | [15] 98 % of control | dose: 200.0 mg/kg/injection, schedule: Q01DX009 (ip), vehicle: saline 113 % of control

N#CC#Cc1cccc(C#CC#N)c1
inactive: dose: 6.25 mg/kg/injection, schedule: Q01DX001 (ip), vehicle: saline with Tween-80 110 % of control | dose: 12.5 mg/kg/injection, schedule: Q01DX001 (ip), vehicle: saline with Tween-80 100 % of control

c1ccc2cc3cc(N=Nc4ccc5cc6ccccc6cc5c4)ccc3cc2c1
inactive: dose: 100.0 mg/kg/injection, schedule: Q04DX002 (ip), vehicle: saline with Tween-80 108 % of control | dose: 200.0 mg/kg/injection, schedule: Q04DX002 (ip), vehicle: saline with Tween-80 104 % of control | dose: 400.0 mg/kg/injection, schedule: Q04DX002 (ip), vehicle: saline with Tween-80 106 % of control

Cc1nc(N)c2ncn(C3OC(CO)C(O)C3O)c2n1 (centres undefined)
inactive: dose: 6.25 mg/kg/injection, schedule: Q01DX009 (ip), vehicle: saline 100 % of control | [1] 106 % of control | [2] 109 % of control | [4] 112 % of control

O=CNNC(=S)Nc1ccccc1
inactive: [3] 113 % of control | [5] 109 % of control | dose: 200.0 mg/kg/injection, schedule: Q01DX009 (ip), vehicle: saline with Tween-80 108 % of control

COC(=O)/C(=C/Cl)NC(C)=O
inactive: dose: 12.5 mg/kg/injection, schedule: Q01DX001 (ip), vehicle: suspension in saline 91 % of control | dose: 25.0 mg/kg/injection, schedule: Q01DX001 (ip), vehicle: suspension in saline 99 % of control | dose: 50.0 mg/kg/injection, schedule: Q01DX001 (ip), vehicle: suspension in saline 92 % of control | dose: 200.0 mg/kg/injection, schedule: Q01DX001 (ip), vehicle: suspension in saline 98 % of control

COc1ccc([N+](=O)[O-])cc1NOC(C)=O
inactive: [9] 111 % of control | dose: 200.0 mg/kg/injection, schedule: Q04DX003 (ip), vehicle: Klucel (hydroxypropylcellulose) (HPC) 119 % of control | dose: 400.0 mg/kg/injection, schedule: Q04DX003 (ip), vehicle: Klucel (hydroxypropylcellulose) (HPC) 94 % of control

CCC(=O)Oc1ccccc1C
inactive: dose: 12.5 mg/kg/injection, schedule: Q04DX003 (ip), vehicle: saline with Tween-80 103 % of control | dose: 25.0 mg/kg/injection, schedule: Q04DX003 (ip), vehicle: saline with Tween-80 105 % of control | dose: 50.0 mg/kg/injection, schedule: Q04DX003 (ip), vehicle: saline with Tween-80 103 % of control | dose: 100.0 mg/kg/injection, schedule: Q04DX003 (ip), vehicle: saline with Tween-80 103 % of control

C/C=C/N1C(=O)C2C=CC1C(C(C)=O)C2 (centres undefined)
inactive: dose: 100.0 mg/kg/injection, schedule: Q04DX002 (ip), vehicle: saline 94 % of control | dose: 200.0 mg/kg/injection, schedule: Q04DX002 (ip), vehicle: saline 98 % of control | dose: 400.0 mg/kg/injection, schedule: Q04DX002 (ip), vehicle: saline 96 % of control

COc1ccccc1-n1c(=O)c(N=Nc2ccccc2Cl)c(O)n(-c2ccccc2Cl)c1=S
inactive: [6] 101 % of control | [7] 100 % of control | [8] 101 % of control

CCCOc1ccccc1NC(=O)CN1CCCC1
inactive: dose: 60.0 mg/kg/injection, schedule: Q01DX005 (ip), vehicle: saline 104 % of control | dose: 120.0 mg/kg/injection, schedule: Q01DX005 (ip), vehicle: saline 106 % of control | dose: 240.0 mg/kg/injection, schedule: Q01DX005 (ip), vehicle: saline 116 % of control

CCN(CC)C(=O)c1ccc2c(c1OCOC)CCC2
inactive: [10] 107 % of control | [11] 97 % of control | [12] 92 % of control
